Structures can show the parent of a compound that is named as a salt.
Test: rotating disk dissolution test
Type: physicochemical
Conditions: 300 rpm; for Rotating Disk Dissolution Rate (RDDR): crystalline salt, 20 mg pellet, about 500 ml dissolution medium at 25° C., slope normalized to initial exposed surface area
Description: In a preferred aspect, the salts of the present invention are crystalline salts. A crystalline salt of the invention dissolves slower than the crystalline maleate salt of the same compound under standard conditions of temperature, pressure, and fluid flow. Preferably, the dissolution rate of a crystalline salt of the invention, when measured by a rotating disk dissolution test, is less than 50% of that of a crystalline maleate salt of the same compound. More preferably, the dissolution rate is less than 25% of that of a crystalline maleate salt of the same compound. More preferably, the dissolution rate is less than 10% of that of a crystalline maleate salt of the same compound. For example, under the standard conditions in a rotating disc dissolution test, the maleate salt crystals dissolved at a rotating disc dissolution rate (RDDR) of 0.44 mmole sec^−1 cm^−2, whereas the xinafoate salt crystals dissolved at a rate of 0.03 mmole sec^−1 cm^−2 (see FIG. 1). In preferred embodiments, the salt of the invention the salt has a dissolution rate into aqueous solution of about 0.40 mmole sec^−1 cm^−2 or less. In more preferred embodiments, the salt of the invention the salt has a dissolution rate into aqueous solution of about 0.20 mmole sec^−1 cm^−2 or less. In more preferred embodiments, the salt of the invention the salt has a dissolution rate into aqueous solution of about 0.05 mmole sec^−1 cm^−2 or less.
Dissolution rates of sumanirole from xinafoate and maleate crystalline salts were determined using a rotating disk apparatus. In this apparatus, a die containing a pellet comprising a substance of interest is attached to an arm connected to a small motor. The die is submerged in about 500 ml of a dissolution medium at 25° C., and rotated at 300 rpm. The concentration of a compound released into solution is measured in a series of time points using an in situ UV/vis absorbance dip probe linked to a digital computer. For testing the dissolution rates of sumanirole xinafoate and sumanirole maleate crystalline salts, 20 mg of the xinafoate crystalline salt and 20 mg of the maleate crystalline salt were each pressed into pellets of uniform shape at 1000 pounds (3700 psi) for 1 minute. Each pellet was then subjected to dissolution in a rotating disc dissolution apparatus. Measurements of the amount of sumanirole dissolved into the medium, recorded as milligrams of free base equivalent of sumanirole, were plotted against time (FIG. 1). The slope of each curve, normalized to the initial exposed surface area of each disk, was used to calculate a Rotating Disk Dissolution Rate (RDDR) for each salt.

Row | Rotating Disk Dissolution Rate (RDDR) [mmole sec^−1 cm^−2] | Rotating Disk Dissolution Rate (RDDR) (listed as xinafoate salt) [mmole sec^−1 cm^−2] | dissolution rate relative to the rate of the sumanirole maleate crystalline salt (rotating disk dissolution, 25° C.) | Rotating Disk Dissolution Rate (RDDR) (listed as maleate salt) [mmole sec^−1 cm^−2] | Compound
1 | 0.030 | 0.03 | less than 10% | – | CN[C@@H]1Cc2cccc3[nH]c(=O)n(c23)C1 [sumanirole xinafoate, (R)-5,6-dihydro-5-(methylamino)-4H-imidazo[4,5,1-ij]quinolin-2(1H)-one]
2 | 0.44 | – | – | 0.44 | CN[C@@H]1Cc2cccc3[nH]c(=O)n(c23)C1 [sumanirole maleate, (R)-5,6-dihydro-5-(methylamino)-4H-imidazo[4,5,1-ij]quinolin-2(1H)-one, reference compound]

From US20040138200A1, “Pharmaceutical compositions for treatment of Parkinson's disease” (priority 2002, published 2004)
